Results on 1 compound are retold here after US10759767B2 (priority 2012, dated 2020).

Read-outs that look alike come from different tables or passages of the source.

One data set has as its system Leptosphaeria nodorum. Nature of the data set: Microtest: activity against wheat leaf spots caused by Leptosphaeria nodorum (Leptno). It is filed as cell-based. Conditions: Parastagonospora nodorum, 168 h, read-out: Observed efficacy.
The test system of another data set is Septoria tritici. The data set is described as follows: Microtest: activity against leaf blotch on wheat caused by Septoria tritici (Septtr). It is filed as cell-based. As to conditions: solo product.
A further data set has as its system Alternaria solani. The data set is described as follows: Microtest: activity against early blight caused by Alternaria solani (Alteso). It is filed as cell-based. As to conditions: Alternaria solani, 168 h, read-out: Observed efficacy.
The test system of another data set is Phytophthora infestans. The data set is described as follows: microbe, parasite or virus in culture. Type of data set: cell-based. Conditions: Phytophthora infestans, 168 h, read-out: Observed efficacy.
The test system of a further data set is Pyricularia oryzae. Nature of the data set: microbe, parasite or virus in culture. Type of data set: cell-based. Conditions: Pyricularia oryzae, 168 h, read-out: Observed efficacy.
Another data set relates to Botrytis cinerea. The data set is described as follows: Microtest: activity against the grey mold Botrytis cinerea (Botrci). Type of data set: cell-based. Conditions: Botrytis cinerea, 168 h, read-out: Observed efficacy.

`CC(C)C(O)(Cn1cncn1)c1ccc(Oc2ccc(Cl)cc2)cc1C(F)(F)F` (stereo not drawn) [I-5, 2-[4-(4-chlorophenoxy)-2-(trifluoromethyl)phenyl]-3-methyl-1-(1,2,4-triazol-1-yl)butan-2-ol] registered a melting point of 114 °C. Besides, the inhibition of growth at […] in the data set with Leptosphaeria nodorum (solo 0.25 ppm) worked out at 19%. Further, the inhibition of growth at 0.001 ppm in the data set on Leptosphaeria nodorum (solo product, 0.001 ppm) was found to be 9%. The inhibition of growth at […] in the data set on Leptosphaeria nodorum (solo product, 0.063 ppm) was determined as 20%. Moreover, the inhibition of growth at 2.5e-07 ppm in the data set on Septoria tritici (Zymoseptoria tritici, 168 h, second Septtr microtest, 0.00000025 ppm, read-out: Observed efficacy) was 5%. In addition, the inhibition of growth at 1e-06 ppm in the data set with Septoria tritici (Zymoseptoria tritici, 168 h, second Septtr microtest, 0.000001 ppm, read-out: Observed efficacy) was found to be 10%. Also, the inhibition of growth at 1.6e-05 ppm in the data set with Septoria tritici (Zymoseptoria tritici, 168 h, 0.000016 ppm, read-out: Observed efficacy) was 13%. For the same compound, the Observed efficacy in the data set with Septoria tritici (second Septtr microtest, 0.000016 ppm) was 13%. Besides, in the data set with Alternaria solani (solo 0.000004 ppm), the inhibition of growth at 4e-06 ppm was 8%. The inhibition of growth at 0.004 ppm with Alternaria solani (solo 0.004 ppm) turned out to be 11%. Also, the inhibition of growth at 0.016 ppm in the data set on Alternaria solani (solo 0.016 ppm) is 10%. Moreover, in the data set on Alternaria solani (solo 0.063 ppm), the inhibition of growth at […] stood at 14%. Besides, the inhibition of growth at 1 ppm in the data set on Alternaria solani (solo 1 ppm) worked out at 49%. Besides, in the data set with Phytophthora infestans, the inhibition of growth at 16 ppm worked out at 2% and the inhibition of growth at 63 ppm amounted to 45%. Moreover, in the data set on Pyricularia oryzae, the inhibition of growth at 0.001 ppm was determined as 5%, the inhibition of growth at 0.004 ppm came out at 0%, the inhibition of growth at 0.016 ppm is 0% and the inhibition of growth at 1 ppm worked out at 67%. In addition, in the data set on Botrytis cinerea (solo 0.063 ppm), the inhibition of growth at […] was found to be 14%. Also, the inhibition of growth at […] with Botrytis cinerea (solo 0.25 ppm) turned out to be 27%.
